In ChEMBL document CHEMBL3045696, “CsFCelite catalyzed facile N-alkylation of 2(3H)-benzoxazolones and antimicrobial properties of 2-substituted benzoxazole and 3-substituted-2(3H)-benzoxazolone derivatives” (2011):
≈ marks a conversion by molar mass, not a printed value. Calls of active or inactive are those of the source. No cut-off for these calls is given here.

Key:
Assay type in all cases: functional
Saccharomyces cerevisiae [1] = assay: Antimicrobial activity against Saccharomyces cerevisiae MTCC 36 at 150 ug after 48 hr by agar well diffusion method
Candida albicans [2] = assay: Antimicrobial activity against Candida albicans MTCC 227 at 150 ug after 48 hr by agar well diffusion method; conditions: for zone of inhibition at 150 µg/disc: MTCC 227, 48 h, read-out: IZ
Rhizopus arrhizus [3] = assay: Antimicrobial activity against Rhizopus oryzae MTCC 262 at 150 ug after 48 hr by agar well diffusion method
Staphylococcus aureus = assay: Antimicrobial activity against Staphylococcus aureus MTCC 96 by broth dilution method
Saccharomyces cerevisiae [4] = assay: Antimicrobial activity against Saccharomyces cerevisiae MTCC 36 at 100 ug after 48 hr by agar well diffusion method
Candida albicans [5] = assay: Antimicrobial activity against Candida albicans MTCC 227 at 100 ug after 48 hr by agar well diffusion method
Klebsiella pneumoniae = assay: Antimicrobial activity against Klebsiella pneumoniae MTCC 618 by broth dilution method
Escherichia coli = assay: Antimicrobial activity against Escherichia coli MTCC 443 by broth dilution method
Rhizopus arrhizus [6] = assay: Antimicrobial activity against Rhizopus oryzae MTCC 262 at 100 ug after 48 hr by agar well diffusion method
[7] = test system: Staphylococcus epidermidis; assay: Antimicrobial activity against Staphylococcus epidermidis by broth dilution method
Aspergillus niger [8] = assay: Antimicrobial activity against Aspergillus niger MTCC 282 at 150 ug after 48 hr by agar well diffusion method; conditions: for zone of inhibition at 150 µg/disc: MTCC 282, 48 h, read-out: IZ
Bacillus subtilis = assay: Antimicrobial activity against Bacillus subtilis MTCC 441 by broth dilution method
Pseudomonas aeruginosa = assay: Antimicrobial activity against Pseudomonas aeruginosa MTCC 741 by broth dilution method
Aspergillus niger [9] = assay: Antimicrobial activity against Aspergillus niger MTCC 282 at 100 ug after 48 hr by agar well diffusion method

SMILES | Activity (Saccharomyces cerevisiae [1]) | Activity (Candida albicans [2]) | Activity (Rhizopus arrhizus [3]) | MIC (Staphylococcus aureus) [µg/mL] | Activity (Saccharomyces cerevisiae [4]) | Activity (Candida albicans [5]) | MIC (Klebsiella pneumoniae) [µg/mL] | MIC (Escherichia coli) [µg/mL] | Activity (Rhizopus arrhizus [6]) | MIC [7] [µg/mL] | Activity (Aspergillus niger [8]) | MIC (Bacillus subtilis) [µg/mL] | MIC (Pseudomonas aeruginosa) [µg/mL] | Activity (Aspergillus niger [9]) | zone of inhibition at 150 µg/disc (Candida albicans [2]) [mm] | further results
O=c1oc2ccc(Cl)cc2n1CCCN1CCN(c2ncccn2)CC1 | inactive | inactive | inactive | 150 (≈ 401 µM) | inactive | inactive | 150 (≈ 401 µM) | 150 (≈ 401 µM) | inactive | 150 (≈ 401 µM) | inactive | 150 (≈ 401 µM) | 150 (≈ 401 µM) | inactive |  | 
c1ccc(CN2CCN(c3nc4ccccc4o3)CC2)cc1 |  |  |  | 150 (≈ 511 µM) |  | inactive | 150 (≈ 511 µM) | 150 (≈ 511 µM) | inactive | 75 (≈ 256 µM) |  | 150 (≈ 511 µM) | 75 (≈ 256 µM) | inactive | 9 | zone of inhibition at 150 µg/disc (Saccharomyces cerevisiae [1]; MTCC 36, 48 h, read-out: IZ): 10 mm; zone of inhibition at 150 µg/disc (Rhizopus arrhizus [3]; MTCC 262, 48 h, read-out: IZ): 9 mm; zone of inhibition at 100 µg/disc (Saccharomyces cerevisiae [4]; MTCC 36, 48 h, read-out: IZ): 12 mm; zone of inhibition at 150 µg/disc (Aspergillus niger [8]): 9 mm
c1ccc2oc(N3CCOCC3)nc2c1 | inactive |  | inactive | 75 (≈ 367 µM) | inactive |  | 37.5 (≈ 184 µM) | 150 (≈ 734 µM) | inactive | 150 (≈ 734 µM) | inactive | 150 (≈ 734 µM) | 150 (≈ 734 µM) | inactive | 9 | zone of inhibition at 100 µg/disc (Candida albicans [5]; MTCC 227, 48 h, read-out: IZ): 7 mm
CC1CN(c2nc3ccccc3o2)CCN1 (configuration not stated) | inactive | inactive | inactive | 150 (≈ 690 µM) | inactive | inactive | 150 (≈ 690 µM) | 75 (≈ 345 µM) | inactive | 150 (≈ 690 µM) | inactive | 150 (≈ 690 µM) | 150 (≈ 690 µM) | inactive |  | 
O=c1oc2ccc(Cl)cc2n1Cc1ccccc1 | inactive | inactive | inactive | 75 (≈ 289 µM) | inactive | inactive | 75 (≈ 289 µM) | 150 (≈ 578 µM) | inactive | 75 (≈ 289 µM) | inactive | 150 (≈ 578 µM) | 150 (≈ 578 µM) | inactive |  | 
Clc1cccc(N2CCN(c3nc4ccccc4o3)CC2)c1 | inactive | inactive | inactive | 75 (≈ 239 µM) | inactive | inactive | 150 (≈ 478 µM) | 150 (≈ 478 µM) | inactive | 150 (≈ 478 µM) | inactive | 150 (≈ 478 µM) | 150 (≈ 478 µM) | inactive |  | 
O=c1oc2ccc(Cl)cc2n1CCCN1CCN(c2cccc(Cl)c2)CC1 | inactive | inactive | inactive | 150 (≈ 369 µM) | inactive | inactive | 150 (≈ 369 µM) | 150 (≈ 369 µM) | inactive | 150 (≈ 369 µM) | inactive | 150 (≈ 369 µM) | 150 (≈ 369 µM) | inactive |  | 
O=c1oc2ccc(Cl)cc2n1CCCN1CCN(c2ccccn2)CC1 | inactive | inactive | inactive | 150 (≈ 402 µM) | inactive | inactive | 150 (≈ 402 µM) | 150 (≈ 402 µM) | inactive | 150 (≈ 402 µM) | inactive | 150 (≈ 402 µM) | 75 (≈ 201 µM) | inactive |  | 
O=c1oc2ccc(Cl)cc2n1CCCN1CCN(Cc2ccccc2)CC1 | inactive |  | inactive | 150 (≈ 389 µM) | inactive | inactive | 150 (≈ 389 µM) | 150 (≈ 389 µM) | inactive | 75 (≈ 194 µM) |  | 150 (≈ 389 µM) | 75 (≈ 194 µM) |  | 9 | zone of inhibition at 150 µg/disc (Aspergillus niger [8]): 9 mm; zone of inhibition at 100 µg/disc (Aspergillus niger [9]; MTCC 282, 48 h, read-out: IZ): 7 mm
CC1(C)S[C@@H]2[C@H](NC(=O)Cc3ccccc3)C(=O)N2[C@H]1C(=O)O [PENICILLIN G] |  |  |  | 1.56 (≈ 4.67 µM) |  |  | 6.25 (≈ 18.7 µM) | 12.5 (≈ 37.4 µM) |  | 3.12 (≈ 9.35 µM) |  | 1.56 (≈ 4.67 µM) | 12.5 (≈ 37.4 µM) |  |  | 
